Results on 22 compounds are retold here after ChEMBL document CHEMBL1132741, “Novel antifungals based on 4-substituted imidazole: a combinatorial chemistry approach to lead discovery and optimization” (Bioorg Med Chem Lett, 2000).

Converted amounts (≈) assume the structure as drawn.

The subject of assay [1] is Saccharomyces cerevisiae. Nature of the assay: Antifungal activity against yeast expressed as negative log (pLAD value). Format: functional.
Assay [2] is described as follows: Antifungal activity against molds expressed as negative log (pLAD value). Format: functional, mould.
The test system of assay [3] is Pichia kudriavzevii. The assay is described as follows: Minimum inhibitory concentration of compound for antifungal activity against Candida krusei. The assay is classed as functional.
For assay [4], the system named is Sporothrix schenckii. Nature of the assay: Minimum inhibitory concentration of compound for antifungal activity against Sporothrix schenck ii. Format: functional.
The test system of assay [5] is Candida albicans. Nature of the assay: Minimum inhibitory concentration of compound for antifungal activity against Candida albicans 1. Format: functional.
Assay [6] concerns Candida albicans. Nature of the assay: Minimum inhibitory concentration of compound for antifungal activity against Candida albicans 4. The assay is classed as functional.
Assay [7] deals with Cryptococcus neoformans. The assay is described as follows: Minimum inhibitory concentration of compound for antifungal activity against Cryptococcus neoformans. The assay is classed as functional.
In assay [8] the test system is Aspergillus fumigatus. Nature of the assay: Minimum inhibitory concentration of compound for antifungal activity against Aspergillus fumigatus. The assay is classed as functional.
Assay [9] deals with Trichophyton rubrum. Nature of the assay: Minimum inhibitory concentration of compound for antifungal activity against Trichophyton rubrum. The assay is classed as functional.
Assay [10] has as its system Candida tropicalis. The assay is described as follows: Minimum inhibitory concentration of compound for antifungal activity against Candida tropicalis. The assay is classed as functional.
Assay [11] relates to Trichophyton benhamiae. The assay is described as follows: Minimum inhibitory concentration of compound for antifungal activity against Trichophyton mentagrophytes. Format: functional, Arthroderma benhamiae.
Assay [12] deals with Nakaseomyces glabratus. Nature of the assay: Minimum inhibitory concentration of compound for antifungal activity against Candida glabrata. The assay is classed as functional.
In assay [13] the test system is Microsporum canis. Nature of the assay: Minimum inhibitory concentration of compound for antifungal activity against Mucosporam canis. Format: functional.
For assay [14], the system named is Candida parapsilosis. Nature of the assay: Minimum inhibitory concentration of compound for antifungal activity against Candida parapsilosis. The note with it: Lodderomyces parapsilosis. Format: functional.
Assay [15] deals with Kluyveromyces marxianus. The assay is described as follows: Minimum inhibitory concentration of compound for antifungal activity against Candida kefyr. The assay is classed as functional.
Assay [16] relates to Candida albicans. Nature of the assay: Minimum inhibitory concentration of compound for antifungal activity against Candida albicans 2. The assay is classed as functional.
The test system of assay [17] is Candida albicans. The assay is described as follows: Inhibition of ergosterol synthesis as measured in Candida albicans subcellular screen. The assay is classed as functional.

With `CCCCOc1ccc(S(=O)(=O)N(Cc2c[nH]cn2)[C@H](C)C2CCCCC2)cc1`, the pLADy in [1] was 6.13. The compound further yielded a pLADm in [2] of 4.6.
For `CCCCOc1ccc(S(=O)(=O)N(Cc2c[nH]cn2)[C@@H](C)C2CCCCC2)cc1`, in that order: 5.9 and 5.
For `CCCCOc1ccc(S(=O)(=O)N(CCc2ccc(F)cc2)CC2=CNC(C)N2)cc1` (centres undefined), in that order: 3.95 and 3.92.
With `CCCCOc1ccc(S(=O)(=O)N(Cc2c[nH]cn2)C(CC)C2CCCCC2)cc1` (centres undefined), the minimum inhibitory concentration (MIC) (usually the lowest concentration that inhibits growth of the organism) was 1 µM (≈ 0.434 µg/mL) in [3]; over 10 µM in assay [4]; over 10 µM in assay [5]; under 0.1 µM in assay [6]; 1 µM (≈ 0.434 µg/mL) in assay [7]; over 10 µM in assay [8]. For the same compound, the minimal inhibitory concentration (MIC) was 1 µM (≈ 0.434 µg/mL) in [9]; 1 µM (≈ 0.434 µg/mL) in [10]; 10 µM (≈ 4.34 µg/mL) in assay [11]; 1 µM (≈ 0.434 µg/mL) in assay [12]; 1 µM (≈ 0.434 µg/mL) in [13]; under 0.1 µM in assay [14]. Moreover, the MIC in assay [15] and in [16] was under 0.1 µM each time. Besides, the pLADy in assay [1] was over 6.8. Moreover, the pLADm in assay [2] came out at 5.
In the case of `CCCCOc1ccc(S(=O)(=O)N(CC2CCCCC2)C(C)c2c[nH]cn2)cc1` (centres undefined), the pLADy in assay [1] amounted to 6.3. Besides, in assay [2], the pLADm is 4.
For `CCCCOc1ccc(S(=O)(=O)N(Cc2c[nH]cn2)CC2CCCCC2)cc1`, in that order: 6.1 and 3.6.
For `CC(C)C(C(C)C)N(Cc1c[nH]cn1)S(=O)(=O)c1cc(Cl)sc1Cl`, the half-inhibitory concentration (IC50) (commonly the concentration needed to halve the response being measured) in [17] turned out to be 71 nM. In addition, the pLADy in [1] is reported as 6.3. The same compound yielded a pLADm in assay [2] of 4.5.
Compound `CCCCOc1ccc(S(=O)(=O)N(CC2CCCCC2)C(c2ccccc2)c2c[nH]cn2)cc1` (centres undefined) gave a pLADy in assay [1] of 5.1. Moreover, the pLADm in assay [2] is 4.
In turn, `CCCCOc1ccc(S(=O)(=O)N(CCc2ccc(F)cc2)Cc2nc[nH]n2)cc1` gave a pLADy in [1] of 3.95. Further, in assay [2], the pLADm is given as 3.92.
As to `CCCCCCN(Cc1c[nH]cn1)S(=O)(=O)c1ccc(OCCCC)cc1`, the IC50 in assay [17] was 76 nM. This compound yielded a pLADy in assay [1] of 6.1. The same compound yielded a pLADm in assay [2] of 5.2.
For `CCCCOc1ccc(S(=O)(=O)N(CCCCc2ccccc2)Cc2c[nH]cn2)cc1`, in that order: 27 nM, 5.4 and 5.2.
With `CCCCOc1ccc(S(=O)(=O)N(Cc2c[nH]cn2)C(C2CCCCC2)C2CCCCC2)cc1`, the pLADy in assay [1] came to 5. For the same compound, the pLADm in assay [2] was 4.
With `CCCCOc1ccc(S(=O)(=O)N(CCc2ccc(F)cc2)Cc2c[nH]cn2)cc1`, the MIC in [3] is over 10 µM; in assay [4], over 10 µM; in assay [5], over 10 µM; in [6], 10 µM (≈ 4.32 µg/mL); in assay [7], 1 µM (≈ 0.432 µg/mL); in assay [8] it was over 10 µM. The MIC in assay [9] is 1 µM (≈ 0.432 µg/mL); in assay [10] it was under 0.1 µM; in assay [11], over 10 µM; in assay [12], 10 µM (≈ 4.32 µg/mL); in [13] it was 10 µM (≈ 4.32 µg/mL); in assay [14], 1 µM (≈ 0.432 µg/mL). Besides, the minimal inhibitory concentration (MIC) in assay [15] and in assay [16] was under 0.1 µM each time. In assay [17], this compound came in with an IC50 of 26 nM. This compound also showed a pLADy in [1] of 6.2. In assay [2], the pLADm is given as 4.6.
In the case of `CCCCOc1ccc(S(=O)(=O)N(Cc2c[nH]cn2)C(C(C)C)C(C)C)cc1`, the minimum inhibitory concentration (MIC) in assay [3] is 10 µM (≈ 4.08 µg/mL); in assay [4], over 10 µM; in [5], over 10 µM; in assay [6], under 0.1 µM; in assay [7] it was 1 µM (≈ 0.408 µg/mL); in [8], over 10 µM. Also, the MIC in [9] was 1 µM (≈ 0.408 µg/mL); in assay [10], 0.1 µM (≈ 0.0408 µg/mL); in [11], 10 µM (≈ 4.08 µg/mL); in assay [12], 10 µM (≈ 4.08 µg/mL); in assay [13], 1 µM (≈ 0.408 µg/mL); in assay [14], 0.1 µM (≈ 0.0408 µg/mL). For the same compound, the MIC in [15] and in [16] was under 0.1 µM each time. The compound further had a half-maximal inhibitory concentration (IC50) in [17] of 73 nM. For the same compound, in assay [1], the pLADy is reported as 6.7. This compound also showed a pLADm in assay [2] of 5.
In assay [1], `CCCCOc1ccc(S(=O)(=O)N(CCc2ccccc2F)Cc2[nH]cnc2C)cc1` registered a pLADy of under 4. Also, the pLADm in assay [2] is under 4.
Turning to `CCCCOc1ccc(S(=O)(=O)N(Cc2cncn2C)C(C)C2CCCCC2)cc1` (centres undefined), the MIC was 1 µM (≈ 0.434 µg/mL) in assay [3]; over 10 µM in assay [4]; over 10 µM in assay [5]; 10 µM (≈ 4.34 µg/mL) in assay [6]; 1 µM (≈ 0.434 µg/mL) in assay [7]; over 10 µM in assay [8]. Also, the MIC came to 1 µM (≈ 0.434 µg/mL) in assay [9]; 0.1 µM (≈ 0.0434 µg/mL) in assay [10]; 10 µM (≈ 4.34 µg/mL) in assay [11]; 1 µM (≈ 0.434 µg/mL) in assay [12]; 1 µM (≈ 0.434 µg/mL) in assay [13]; 0.1 µM (≈ 0.0434 µg/mL) in assay [14]. In addition, the MIC in [15] and in [16] was under 0.1 µM throughout. In addition, in assay [1], the pLADy is 6.6. The compound further yielded a pLADm in assay [2] of 4.8.
Consider `Brc1ccc(CCN(Cc2ccc(-c3ccccc3)cc2)Cc2c[nH]cn2)cc1`, for which the IC50 in assay [17] worked out at 1240 nM. For the same compound, the pLADy in assay [1] was 4.9. Further, the pLADm in assay [2] is 5.8.
`CCCCCc1ccc(S(=O)(=O)N(CCC(C)C)Cc2c[nH]cn2)cc1` yielded an IC50 in assay [17] of 120 nM. In [1], the pLADy is on record as 6.4. Besides, the pLADm in [2] is reported as 5.
For the compound `CCCCOc1ccc(S(=O)(=O)N(CCc2cccs2)Cc2c[nH]cn2)cc1`, the half-inhibitory concentration (IC50) in [17] turned out to be 11 nM. In addition, the pLADy in assay [1] was 6.5. The pLADm in assay [2] amounted to 4.4.
Regarding `OC(Cn1cncn1)(Cn1cncn1)c1ccc(F)cc1F` [FLUCONAZOLE], the MIC in assay [3] was over 10 µM; in [4] it was over 10 µM; in assay [5], over 10 µM; in [6] it was 1 µM (≈ 0.306 µg/mL); in assay [7] it was 10 µM (≈ 3.06 µg/mL); in assay [8], over 10 µM. The MIC is 10 µM (≈ 3.06 µg/mL) in assay [9]; over 10 µM in assay [10]; over 10 µM in assay [11]; over 10 µM in [12]; 10 µM (≈ 3.06 µg/mL) in assay [13]; 10 µM (≈ 3.06 µg/mL) in [14]. Besides, the MIC in [15] and in assay [16] was 1 µM (≈ 0.306 µg/mL) throughout.
Consider `CCC(C)n1ncn(-c2ccc(N3CCN(c4ccc(OCC5COC(Cn6cncn6)(c6ccc(Cl)cc6Cl)O5)cc4)CC3)cc2)c1=O` (centres undefined) [ITRACONAZOLE], for which the MIC in assay [3] is 1 µM (≈ 0.706 µg/mL); in assay [4] it was 10 µM (≈ 7.06 µg/mL); in assay [5], over 10 µM; in assay [6], over 10 µM; in assay [7], under 0.1 µM; in [8], 1 µM (≈ 0.706 µg/mL). Besides, the MIC in [9] is under 0.1 µM; in assay [10], 0.1 µM (≈ 0.0706 µg/mL); in assay [11], 0.1 µM (≈ 0.0706 µg/mL); in assay [12] it was 1 µM (≈ 0.706 µg/mL); in assay [13], under 0.1 µM; in assay [14], under 0.1 µM. The MIC in assay [15] and in assay [16] was under 0.1 µM throughout.
`CC(=O)N1CCN(c2ccc(OC[C@H]3CO[C@](Cn4ccnc4)(c4ccc(Cl)cc4Cl)O3)cc2)CC1` [KETOCONAZOLE]: the MIC in assay [3] is 1 µM (≈ 0.531 µg/mL); in [4], 10 µM (≈ 5.31 µg/mL); in assay [5], over 10 µM; in [6] it was 10 µM (≈ 5.31 µg/mL); in assay [7] it was 0.1 µM (≈ 0.0531 µg/mL); in assay [8], 10 µM (≈ 5.31 µg/mL). Also, the minimum inhibitory concentration (MIC) in [9] worked out at 0.1 µM (≈ 0.0531 µg/mL); in assay [10] it was 10 µM (≈ 5.31 µg/mL); in [11], 10 µM (≈ 5.31 µg/mL); in [12], 10 µM (≈ 5.31 µg/mL); in [13] it was 1 µM (≈ 0.531 µg/mL); in [14], 0.1 µM (≈ 0.0531 µg/mL). Besides, the results for the minimum inhibitory concentration (MIC) in assay [15] and in [16] were under 0.1 µM and 0.1 µM (≈ 0.0531 µg/mL), respectively.
